Test systems include OVCAR-8 ovarian; UO-31 renal; NCI-H522 lung; RXF 393 renal; NCI-H23 lung; EKVX NSCLC; OVCAR-5 ovarian; CAKI-1 renal; BT-549 breast; MCF7 breast.
Common to all, as to experiment: NCI-60 cell line screen, 48 h

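Tested at 5 concentrations; 48 h exposure; 96-well plates; endpoints linearly interpolated, else capped at highest concentration. The concentration for 50% growth inhibition is given as GI50. The concentration for full growth arrest is given as TGI.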 A value given as a limit tells only on which side of the number the result lay.

Regarding `Cc1c(C(Cc2ccccc2N(C)C(=O)/C=C\C(=O)O)c2c[nH]c3ccccc23)c2ccccc2n1C` (stereo not given), the TGI with OVCAR-8 ovarian was found to be 29.4 µM; in the experiment on UO-31 renal, 27.7 µM; with NCI-H522 lung it was 28.6 µM; with RXF 393 renal it was 27.3 µM; in the experiment on NCI-H23 lung it was 32.8 µM; in the experiment on EKVX NSCLC, 33.1 µM. For the same compound, the TGI stood at 35.6 µM in the experiment with OVCAR-5 ovarian and 36 µM in the experiment on CAKI-1 renal.
Take `N#CC(C(=O)CCCC(=O)Nc1ccccc1[N+](=O)[O-])c1c(Cl)cccc1Cl` (stereo not given): the TGI in the experiment with OVCAR-8 ovarian, with UO-31 renal, in the experiment with NCI-H522 lung, with RXF 393 renal, in the experiment on NCI-H23 lung and with EKVX NSCLC was greater than 100 µM throughout. In addition, the TGI in the experiment on OVCAR-5 ovarian and in the experiment on CAKI-1 renal was greater than 100 µM in each case.
On to `CC(=O)OC(C)(C)C1CC[C@]2(C)/C=C/C(C)C[C@@H](O)/C=C(\C)CC(O)C12` (stereo not given in full), for which the TGI in the experiment on OVCAR-8 ovarian, in the experiment with UO-31 renal, with RXF 393 renal, in the experiment on NCI-H23 lung, in the experiment on EKVX NSCLC and in the experiment with OVCAR-5 ovarian was greater than 100 µM throughout. The same compound had a TGI in the experiment on CAKI-1 renal greater than 100 µM.
`Cc1cc(N(CCC#N)CCC#N)ccc1/C=C(\NC(=O)/C=C/c1ccccc1)C(=O)N=[N+]=[N-]`: the TGI in the experiment on OVCAR-8 ovarian was greater than 100 µM; in the experiment with UO-31 renal, greater than 100 µM; in the experiment with NCI-H522 lung it was greater than 100 µM; with RXF 393 renal, 98.5 µM; with NCI-H23 lung, greater than 100 µM; in the experiment on EKVX NSCLC, greater than 100 µM. The TGI in the experiment on OVCAR-5 ovarian and in the experiment on CAKI-1 renal was greater than 100 µM each time.
As to `CC(=O)N1C/C(=C\c2ccccc2)C(=O)/C(=C/c2ccccc2)C1`, the TGI with OVCAR-8 ovarian is 24.4 µM; with UO-31 renal, 34.4 µM; in the experiment with NCI-H522 lung it was 27.9 µM; in the experiment on RXF 393 renal it was 30.4 µM; with NCI-H23 lung, 41.3 µM; in the experiment on EKVX NSCLC, 51.3 µM. Moreover, the TGI in the experiment with OVCAR-5 ovarian was 35.7 µM; with CAKI-1 renal, 35.5 µM.
`O=C(O)/C=C/c1ccc(O)c(O)c1`: the TGI in the experiment on OVCAR-8 ovarian, in the experiment on UO-31 renal, with NCI-H522 lung, in the experiment with RXF 393 renal, in the experiment on NCI-H23 lung and in the experiment with EKVX NSCLC was greater than 100 µM throughout. Further, the TGI with OVCAR-5 ovarian and with CAKI-1 renal was greater than 100 µM throughout.
In the case of `COc1ccc(C2COc3c(ccc(OC)c3OC)C2=O)cc1OC` (stereo not given), the TGI with OVCAR-8 ovarian, in the experiment with UO-31 renal, in the experiment with NCI-H522 lung, in the experiment with RXF 393 renal, in the experiment with NCI-H23 lung and with EKVX NSCLC was greater than 100 µM throughout. Further, in the experiment on CAKI-1 renal, the TGI was greater than 100 µM.
`Cc1ccc(S(=O)c2ccccc2[N+](=O)[O-])cc1` (stereo not given): the TGI in the experiment with OVCAR-8 ovarian, with UO-31 renal, in the experiment with NCI-H522 lung, in the experiment on RXF 393 renal, in the experiment on NCI-H23 lung and with OVCAR-5 ovarian was greater than 100 µM throughout. Further, in the experiment with CAKI-1 renal, the TGI is greater than 100 µM.
`O=C(NCc1cn(Cc2cccc(Oc3ccccc3)c2)nn1)c1cccnc1Nc1ccc(F)cc1`: the GI50 was 7.44 µM with OVCAR-8 ovarian; 45.6 µM in the experiment on BT-549 breast; 86.3 µM in the experiment on UO-31 renal; 10.8 µM in the experiment with NCI-H522 lung; 5.69 µM in the experiment on RXF 393 renal; 52.1 µM in the experiment with NCI-H23 lung. Further, the GI50 was 25.3 µM in the experiment on EKVX NSCLC, greater than 100 µM with OVCAR-5 ovarian and 64.2 µM with CAKI-1 renal. Moreover, the TGI in the experiment on OVCAR-8 ovarian is greater than 100 µM; with BT-549 breast it was greater than 100 µM; in the experiment with UO-31 renal it was greater than 100 µM; with NCI-H522 lung, greater than 100 µM; in the experiment with RXF 393 renal, 42 µM; with NCI-H23 lung, greater than 100 µM. For the same compound, the TGI in the experiment with EKVX NSCLC, with OVCAR-5 ovarian and in the experiment on CAKI-1 renal was greater than 100 µM throughout.
For the compound `NC1=C(O)c2cccc3cccc(c23)C1=O`, the TGI in the experiment with OVCAR-8 ovarian, in the experiment with UO-31 renal, in the experiment with NCI-H522 lung, with RXF 393 renal, in the experiment on NCI-H23 lung and with EKVX NSCLC was greater than 100 µM throughout. In addition, the TGI in the experiment on OVCAR-5 ovarian and with CAKI-1 renal was greater than 100 µM in each case.
As to `CN(C)CC1CC/C(=C\c2ccc(Cl)c(Cl)c2)C1=O` (stereo not given), the TGI is greater than 58.9 µM in the experiment with OVCAR-8 ovarian; greater than 55.9 µM with UO-31 renal; 17.7 µM in the experiment with NCI-H522 lung; greater than 61.8 µM in the experiment with RXF 393 renal; 47.3 µM in the experiment on NCI-H23 lung; greater than 58.7 µM in the experiment on EKVX NSCLC. Further, the TGI in the experiment on OVCAR-5 ovarian is greater than 86.8 µM; in the experiment with CAKI-1 renal it was 56.1 µM.
`O=c1nc2n(-c3cccc(Cl)c3)c3ccc([N+](=O)[O-])cc3cc-2c(=O)[nH]1`: the GI50 in the experiment on OVCAR-8 ovarian is 17 µM; with BT-549 breast, 4.2 µM; in the experiment on UO-31 renal, 5.87 µM; with NCI-H522 lung, 7.37 µM; with RXF 393 renal, 10.1 µM; with NCI-H23 lung, 4.94 µM. Also, the values for the GI50 in the experiment with EKVX NSCLC, in the experiment on OVCAR-5 ovarian and with CAKI-1 renal were 11.9 µM, 11.7 µM and 5.71 µM, respectively. Further, the TGI with OVCAR-8 ovarian was greater than 25 µM; in the experiment with BT-549 breast, 11.8 µM; in the experiment on UO-31 renal, 13 µM; in the experiment with NCI-H522 lung, 21.6 µM; in the experiment with RXF 393 renal, greater than 25 µM; with NCI-H23 lung, 10.6 µM. Besides, the TGI in the experiment on EKVX NSCLC is greater than 25 µM; in the experiment with OVCAR-5 ovarian, greater than 25 µM; with CAKI-1 renal, 16 µM.
As to `CC(C)=CCC/C(C)=C/CC/C(C)=C/CSC[C@H](NC(=O)CCCCCN1CCN(C)CC1)C(=O)NC1CCCCCC1`, the GI50 in the experiment on OVCAR-8 ovarian is 3.33 µM; in the experiment with UO-31 renal it was 1.58 µM; in the experiment on NCI-H23 lung it was 3.01 µM; in the experiment with OVCAR-5 ovarian it was 1.84 µM; in the experiment on CAKI-1 renal it was 2.84 µM; with MCF7 breast, 2.12 µM. Also, the TGI in the experiment with OVCAR-8 ovarian is 12.2 µM; with UO-31 renal, 3.22 µM; with NCI-H23 lung it was 8.78 µM; with OVCAR-5 ovarian it was 3.6 µM; with CAKI-1 renal it was 9.19 µM; in the experiment with MCF7 breast, 4.79 µM.

Values taken from PubChem BioAssay (NCI).
